How the values of data set [1] were obtained:
Thermal stabilities were measured by immobilizing an approximate 0.15-0.20 microns film of the ionic liquid on the inner wall of a fused silica capillary. The capillary was then heated slowly in an oven and a very sensitive flame ionization detector (or mass spectrometer) used to detect any volatilization or decomposition of the ionic liquid. There are several advantages of using this set-up to measure the thermal stabilities of ionic liquids. The thermal stability is measured in the absence of oxygen by purging the capillary with a continuous flow of an inert gas such as helium, hydrogen, or nitrogen. […] Finally, this approach can use mass spectrometry detection to determine the likely volatilization/decomposition products.

The conditions of data set [2]: exposed to the atmosphere and heated; cited from earlier work.
Data set [3] in a line: Surface tension (DuNuoy Tensiometer). It is filed as physicochemical. Conditions: room temperature (23° C.).
The nature of data set [4]: Density (2.0 mL volumetric tube, weighing by difference). It is filed as physicochemical. The note with it: 23° C. The protocol:
(§1) The densities of the ionic liquids or, more correctly, […] (used synonymously except as indicated otherwise explicitly or by context) was determined at 23° C. by placing 2.0 mL of the ionic liquid in a 2.0 mL volumetric tube and weighing by difference. The melting points of the ionic liquids were determined using a Perkin Elmer Pyris 1 Differential Scanning calorimeter (Boston, Mass.). Typical methods involved using a 10° C./min temperature ramp to determine and identify the first and second order thermal transitions. […] For solid compounds, the melting points were verified using a capillary melting point apparatus. Refractive index measurements were conducted at 23° C. using a Bausch & Lomb Abbe-3L refractometer.

Data set [5] in a line: Refractive index (Abbe-3L refractometer). It is filed as physicochemical. Conditions: 23° C. The protocol:
as §1

A short description of data set [6]: Solvation interaction parameters by inverse gas-liquid chromatography (Abraham solvation model). It is filed as physicochemical. The protocol: The preparation of the capillary columns for inverse gas-liquid chromatographic analysis was performed using a previously described procedure.^31 All capillary columns had efficiencies between 2100 to 2500 plates/meter. Characterization of the capillary columns and probe molecule descriptions are listed in supplemental information. Multiple linear regression analysis (MLRA) and statistical calculations were performed using the program Analyse-it (Microsoft, USA).
We have previously reported that the Abraham solvation model, a linear free energy approach that utilizes inverse gas-liquid chromatography to describe the solvation properties of a liquid, can be used to characterize room temperature ionic liquids.^31 Described by equation 1, the model provides the so-called “interaction parameters” (r, s, a, b, l) by using multiple linear regression analysis to fit the retention factor (k, determined chromatographically) to the solute descriptors (R2, π2^H, α2^H, β2^H, log L^16) for a wide variety of probe solute molecules. […] The solvation properties of four dicationic ionic liquids (see Table 4) were evaluated and the interaction parameters compared to those obtained for their traditional monocationic analogues 1-butyl-3-methylimidazolium and 1-butyl-1-methylpyrrolidinium ionic liquids.
Previously we characterized a large number of room temperature ionic liquids in terms of multiple solvation interactions using the solvation parameter model, shown in equation 3.^44 log k=c+rR2+sπ2^H+aα2^H+bβ2^H+l log L^16 [3] This approach utilizes inverse gas-liquid chromatography and allows the use of a large number of probe molecules to deconvolute solute retention in terms of the type and magnitude of individual solvation interactions. The solute descriptors (R2, π2^H, α2^H, β2^H, log L^16) from Equation 3 are obtained from the literature for many probe molecules containing a variety of functional groups.^45 The retention factor is determined chromatographically. The solute descriptors and retention factors are subjected to multiple linear regression analysis to obtain the interaction parameter coefficients (r, s, a, b, l), which ultimately characterize the stationary phase: r is the ability of the diionic liquid containing-stationary phase to interact with π and n electrons of the solute, s is a measure of the dipolarity/polarizability of the diionic liquid containing-stationary phase, a defines the diionic liquid containing-stationary phase hydrogen bond basicity, b is a measure of the hydrogen bond acidity, and/refers to the ability of the diionic liquid containing-stationary phase to separate adjacent members of a homologous series.^46
Test solutes used to determine interaction parameters and solvation thermodynamics were dissolved in dichloromethane. A Hewlett-Packard model 5890 gas chromatograph and a Hewlett-Packard 6890 series integrator were used for all separations. Split injection and flame ionization detection were utilized with injection and detection temperatures of 250° C. Helium was used as the carrier gas with a column inlet pressure of 3.1 psi and flow rate of 1.0 mL/min. Methane was used to determine the dead volume of the column. Multiple linear regression analysis and statistical calculations were performed using the program Analyze-it (Microsoft).

The source holds these as a separate data set.

Read-outs that look alike come from different tables or passages of the source. A value given as a limit tells only on which side of the number the result lay.

For `CCCCn1cc[n+](C)c1.[Cl-]` [BMIM-Cl, 1-butyl-3-methylimidazolium chloride, reference compound], in data set [1] (0.15-0.20 micron film in fused silica capillary, helium flow, FID, tested only up to 400° C.), the “thermal stability (volatilization/decomposition temperature)” value was 145 °C. In addition, the “temperature of obvious signs of decomposition” value in data set [2] was at least 150 °C.
`Cn1cc[n+](CCCCCCCCC[n+]2ccn(C)c2)c1.O=S(=O)([N-]S(=O)(=O)C(F)(F)F)C(F)(F)F.O=S(=O)([N-]S(=O)(=O)C(F)(F)F)C(F)(F)F` [C9(mim)2-NTf2, 1,9-di(3-methylimidazolium)nonane di-bis[(trifluoromethyl)sulfonyl]imidate]: the “Miscibility with Heptane” value is recorded as “Immiscible” and the “Miscibility with Water” value was “Immiscible”. In data set [3], the “Surface Tension” value is on record as 43.1 dynes/cm. Moreover, the Density in data set [4] is 1.47 g/mL. In data set [5], the “Refractive Index” value turned out to be 1.442. Moreover, in data set [1], the “thermal stability (volatilization/decomposition temperature)” value is 350-360 °C. Further, in data set [6] (40° C.), the “a (hydrogen bond basicity)” value amounted to 1.83; the “b (hydrogen bond acidity)” value is recorded as 0.47; the “c (interaction parameter table, constant)” value is given as −2.86; the “l (dispersion forces)” value is 0.62. Moreover, in data set [6] (40° C.), the “r (interaction via nonbonding and π-electrons)” value is recorded as 0.16; the “s (dipolarity/polarizability)” value was determined as 1.81. For the same molecule, in data set [6] (70° C.), the “a (hydrogen bond basicity)” value worked out at 1.75; the “b (hydrogen bond acidity)” value is recorded as 0.20; the “c (interaction parameter table, constant)” value is listed as −2.95; the “l (dispersion forces)” value turned out to be 0.51. Also, in data set [6] (70° C.), the “r (interaction via nonbonding and π-electrons)” value is 0.11; the “s (dipolarity/polarizability)” value is on record as 1.76. In addition, in data set [6] (100° C.), the “a (hydrogen bond basicity)” value worked out at 1.50; the “b (hydrogen bond acidity)” value worked out at 0.15; the “c (interaction parameter table, constant)” value was −3.06; the “l (dispersion forces)” value came to 0.43. Further, in data set [6] (100° C.), the “r (interaction via nonbonding and π-electrons)” value amounted to 0.11; the “s (dipolarity/polarizability)” value came out at 1.64.
For `C[N+]1(CCCCCCCCC[N+]2(C)CCCC2)CCCC1.O=S(=O)([N-]S(=O)(=O)C(F)(F)F)C(F)(F)F.O=S(=O)([N-]S(=O)(=O)C(F)(F)F)C(F)(F)F` [C9(mpy)2-NTf2, 1,9-di(methylpyrrolidinium)nonane di-bis[(trifluoromethyl)sulfonyl]imidate], the “Miscibility with Heptane” value was “Immiscible” and the “Miscibility with Water” value is “Immiscible”. The “Surface Tension” value in data set [3] was found to be 42.2 dynes/cm. The Density in data set [4] came to 1.41 g/mL. Further, the “Refractive Index” value in data set [5] worked out at 1.436. The “thermal stability (volatilization/decomposition temperature)” value in data set [1] was above 400 °C. Also, in data set [6] (40° C.), the “a (hydrogen bond basicity)” value was 1.98; the “b (hydrogen bond acidity)” value worked out at 0.32; the “c (interaction parameter table, constant)” value is −2.83; the “l (dispersion forces)” value worked out at 0.62. In addition, in data set [6] (40° C.), the “r (interaction via nonbonding and π-electrons)” value is 0.27; the “s (dipolarity/polarizability)” value was determined as 1.71. Also, in data set [6] (70° C.), the “a (hydrogen bond basicity)” value is 1.65; the “b (hydrogen bond acidity)” value is recorded as 0.35; the “c (interaction parameter table, constant)” value is recorded as −2.85; the “l (dispersion forces)” value is 0.48. Moreover, in data set [6] (70° C.), the “r (interaction via nonbonding and π-electrons)” value worked out at 0.34; the “s (dipolarity/polarizability)” value came to 1.52. Also, in data set [6] (100° C.), the “a (hydrogen bond basicity)” value was determined as 1.48; the “b (hydrogen bond acidity)” value is reported as 0.15; the “c (interaction parameter table, constant)” value is −2.99; the “l (dispersion forces)” value is on record as 0.42. In data set [6] (100° C.), the “r (interaction via nonbonding and π-electrons)” value came to 0.23; the “s (dipolarity/polarizability)” value is recorded as 1.49.
As to `O=S(=O)([N-]S(=O)(=O)C(F)(F)F)C(F)(F)F.O=S(=O)([N-]S(=O)(=O)C(F)(F)F)C(F)(F)F.c1ccc(Cn2cc[n+](CCCCCCCCCCCC[n+]3ccn(Cc4ccccc4)c3)c2)cc1` [C12(benzim)2-NTf2, 1,12-di(3-benzylimidazolium)dodecane di-bis[(trifluoromethyl)sulfonyl]imidate], the “Miscibility with Heptane” value was “Immiscible” and the “Miscibility with Water” value is “Immiscible”. In addition, in data set [3], the “Surface Tension” value is on record as 41.5 dynes/cm. For the same molecule, the Density in data set [4] came out at 1.37 g/mL. Further, in data set [5], the “Refractive Index” value turned out to be 1.482. The “thermal stability (volatilization/decomposition temperature)” value in data set [1] is 350-360 °C. In data set [6] (40° C.), the “a (hydrogen bond basicity)” value was 1.96; the “b (hydrogen bond acidity)” value came to 0.84; the “c (interaction parameter table, constant)” value is on record as −2.94; the “l (dispersion forces)” value came to 0.66. In addition, in data set [6] (40° C.), the “r (interaction via nonbonding and π-electrons)” value amounted to 0.11; the “s (dipolarity/polarizability)” value amounted to 1.65. Also, in data set [6] (70° C.), the “a (hydrogen bond basicity)” value is reported as 1.75; the “b (hydrogen bond acidity)” value was 0.57; the “c (interaction parameter table, constant)” value was −3.07; the “l (dispersion forces)” value came out at 0.56. Besides, in data set [6] (70° C.), the “r (interaction via nonbonding and π-electrons)” value is recorded as 0.07; the “s (dipolarity/polarizability)” value was 1.62. In data set [6] (100° C.), the “a (hydrogen bond basicity)” value turned out to be 1.44; the “b (hydrogen bond acidity)” value is on record as 0.52; the “c (interaction parameter table, constant)” value is listed as −3.12; the “l (dispersion forces)” value stood at 0.46. In data set [6] (100° C.), the “r (interaction via nonbonding and π-electrons)” value stood at 0; the “s (dipolarity/polarizability)” value came to 1.47.

The values above are taken from patent US8956445B2, “High stability diionic liquid salts” (Sigma-Aldrich Co., priority 2004, dated 2015).
